Test [1] concerns OCI-LY10. As to the kind of experiment: CTG Cell Viability Assay - OCI-LY10. The note with it: Homo sapiens, 96 h; OCI-LY10, 4 days; read-out: CTG Cell Viability Assay - OCI-LY10: Average external-IC50. Type of test: cell-based, human. Put shortly: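 Viability read by CellTiter-Glo luminescence after 4 days at 37° C under 5% CO2 with compound (top 10 μM final, 1:3 steps, 9 doses, DMSO 0.2%). Three-parameter logistic fit gave IC50.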

Test [2] deals with C57BL/6 mice. As to the kind of experiment: IMQ (imiquimod) induced psoriasis. Type of test: in vivo, mouse. The following applies: oral dosing; FIG. 36. Here is the method:
A model of psoriasis includes the effects of degrader on epidermal hyperplasia development induced by daily topical application of 5% imiquimod in C57BL/6 mice. On each of Days 0 to 6, mice had 5% imiquimod cream administered topically on left ear and shaved back skin. Control mice (no imiquimod group) received control cream without imiquimod. […] The last dosing was on Day 6 for all mice. All dosing was at the same time (+/−1 hour) each day. For the BID groups there was no less than 9 and no more than 15 hours between doses. Readouts were body weight, PASI score, and skin thickness. Body weight was measured 3 times/week, starting on Day −3. Once on each of Days 0, 3, 5, 6, and 7, back and ear thickness was measured with calipers. Each measurement was performed blind, by a person unaware of the group or previous measurement. On Day 7, approximately 24 hours after the last imiquimod application, all mice were euthanized and blood collected via cardiac bleed into EDTA tubes. Plasma was isolated, and frozen. Tissues of interest were removed, weighed, recorded and frozen.

Test [3] relates to IL-6. As to the kind of experiment: IL-6 secretion in hPBMC using R848 stimulation. It is filed as cell-based, human. The note with it: Homo sapiens, 20 h; read-out: IL-6 Secretion in hPBMC, R848 as stim, t = 20 h: IC50.

By IC50 is commonly meant the concentration that inhibits the measured activity by half. In the case of `Cn1c(=O)n(C2CCC(=O)NC2=O)c2cccc(C#CCOC3CCN(C[C@H]4CC[C@H](n5cc(NC(=O)c6cnn7ccc(N8C[C@H]9C[C@@H]8CO9)nc67)c(C(F)F)n5)CC4)CC3)c21` (stereo partly drawn) [I-417, N-[3-(difluoromethyl)-1-[4-[[4-[3-[1-(2,6-dioxo-3-piperidyl)-3-methyl-2-oxo-benzimidazol-4-yl]prop-2-ynoxy]-1-piperidyl]methyl]cyclohexyl]pyrazol-4-yl]-5-[(1R,4R)-2-oxa-5-azabicyclo[2.2.1]heptan-5-yl]pyrazolo[1,5-a]pyrimidine-3-carboxamide], the IC50 in test [1] is over 1000 nM; in test [3] it was under 1 nM. Moreover, the “skin thickening in mice treated with topical imiquimod” value in test [2] was “significantly reduced skin thickening”.

The values above are taken from patent US11352350B2, “IRAK degraders and uses thereof” (Kymera Therapeutics, Inc., priority 2018, dated 2022).
